Test results as given in patent US7402575B2, “Methods of treating inflammation” (priority 2003, dated 2008).

Tests used:
Format in all cases: cell-based, dog
[1] = system: nitric-oxide guanosine 3′,5′cyclic monophosphate pathway; assay: Effect of NOS, guanylyl cyclase and PKG inhibitors on lysozyme's myocardial depressant effect in right ventricular trabecular preparation; settings: for Effect on lysozyme's myocardial depressant effect: muscle incubated with inhibitor about one hour before lysozyme
Experimental: (§1) The right ventricular trabecular preparation used in this study has previously been described. Briefly, mongrel dogs (3 to 10 kg) were anesthetized with pentobarbital. The hearts were removed, flushed with 50 ml of Krebs-Henseleit solution (KH), and placed in ice-cold KH bubbled with a mixture of 95% O2 and 5% CO2. Three to four thin trabeculae (<1 mm diameter) were obtained from the right ventricle and were tied at each end with 6-O silk thread. Each thin muscle was suspended in a 5 ml vertical constant temperature bath that contained KH. The muscle was stimulated electrically via punctate platinum bipolar electrodes with rectangular pulses (1 ms duration) at an intensity of 50% above threshold delivered at intervals of 2,000 ms. The trabeculae were stretched to optimal length.
The plasma concentration of lysozyme attained in the inventors' sepsis model is approximately 10^−8M, and the 10^−7M to 10^−9M range was used in the experiments described below. Lysozyme was purified from the spleens of nonseptic dogs as previously described. Measurements were obtained at 5 minute intervals.
In one group of experiments, the non-specific nitric oxide synthase inhibitor N^G-monomethyl-L-arginine (L-LNMMA) was used to determine whether it could inhibit the depressant effect of lysozyme. The muscle was incubated with L-NMMA (10^−3M) for approximately one hour after which lysozyme was instilled into the preparation. As a negative control group, ventricular trabeculae were incubated with D-NMMA after which lysozyme was instilled. With the D-isomer, no inhibition of lysozyme's effect would be expected.
In separate experiments, the respective roles of eNOS, nNOS, and iNOS were evaluated in which the objective was to determine which of the NOS isoforms was responsible for the myocardial depression observed with lysozyme. The relatively specific inhibitors for eNOS (L-NIO.2HCl [L-N^5-(1-[Iminoethyl)-ornithine.2HCl], nNOS (N-ω-Propyl-L-arginine [N^5-[Imino(propylamino)methyl]-L-ornithine], and iNOS (1400W.dihydrochloride [N-(3-aminomethyl)benzyl)acetamidine.2HCl] were compared in respective experiments in which a range of concentrations of either NOS inhibitor was used.
In other experiments, the muscle was incubated ODQ (10^−3M) or the PKG inhibitor (Rp-8-Br-cGMP) for one hour. The effect of lysozyme on isometric tension was compared to trabeculae without the respective inhibitors.
The results are expressed as a percent of baseline isometric tension. Statistical analyses included two-way analysis of variance and Student Newman Keuls' multiple comparison test. The results are reported as mean (±SD).

[2] = system: right ventricular trabecular preparation; assay: Effect of the substance itself on isometric tension in right ventricular trabecular preparation
Experimental: Aliquots of the 10-30 KD plasma fraction (0.05 to 1 ml) were then added to a right ventricular (RV) trabecular preparation to test for the presence of FCS activity. The RV preparation has previously been described (6,7). Briefly, mongrel dogs (3 to 10 kg) were anesthetized with pentobarbital, and their hearts were removed. Three to four thin trabeculae (<1 mm diameter) were obtained from the right ventricle and were suspended in a vertical constant temperature bath (5 ml) that contained Krebs Henseleit (KH) solution. The muscle was stimulated electrically at 0.5 Hz. Aliquots of plasma fractions (from 0.05 to 1 ml) were added to respective organ baths at 5 minute intervals. The changes observed in the pre and septic plasma fractions were expressed relative to tensions found at baseline (i.e. prior to the addition of the sample). An increase in the depressant activity in the septic plasma fraction relative to that found in the presepsis sample was indicative of an increase in FCS.
The effect of purified Lzm-S on myocardial depression was then studied in the ventricular trabecular preparation. In initial experiments, the objective was to compare Lzm-S prepared from septic and nonseptic spleens to see if there was any difference between the two preparations. Although no differences were apparent by SDS-PAGE gel, different isoforms of the enzyme could have developed in sepsis thereby increasing its potential to cause myocardial depression. Aliquots of the septic and nonseptic preparations were added (at 5 minute intervals) to respective organ baths, and the changes in isometric tension were then compared between Lzm-S obtained from spleens of septic and nonseptic animals.
The right ventricular (RV) preparation used in this study has also been described (49,6). Briefly, mongrel dogs (3 to 10 kg) were anesthetized with pentobarbital. The hearts were removed, flushed with 50 ml of Krebs-Henseleit solution (KH), and placed in ice-cold KH bubbled with a mixture of 95% O2 and 5% CO2. […]
After baseline tension was determined, either the lectin or placebo was placed into respective organ baths. […]

lysozyme c (Lzm-S) = molecular target: T1, lysozyme c (Lzm-S) (Canis lupus familiaris, UniProt P81709); assay: Inhibition of Lzm-S's myocardial depressant activity (isometric tension) in right ventricular trabecular preparation; settings: for Isometric tension following pre-treatment with sugar: sugar 10^−3M added before Lzm-S; for Inhibition of Lzm-S's depressant effect on isometric tension: inhibitor 10^−3M added before Lzm-S, paced 0.5 Hz
T1 construct: Lzm-S was purified in a manner described by Grobler et al (14); from tissue
T1 sequence (P81709 1-130): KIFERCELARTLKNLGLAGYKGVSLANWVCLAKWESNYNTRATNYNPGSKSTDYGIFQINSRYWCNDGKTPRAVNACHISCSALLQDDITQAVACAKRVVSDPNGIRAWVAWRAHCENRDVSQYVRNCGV
Experimental: In subsequent experiments, the objective was to determine whether pretreatment of Lzm-S with the proteolytic enzyme proteinase-K reduced the extent to which myocardial depression developed in the in vitro preparation (7). Proteinase-K (attached to beaded agarose; Sigma Chemical, St Louis, Mo.) was added to the pure Lzm-S preparation. The effects of proteinase-K treated and nontreated Lzm-S on isometric tension were compared between the samples. Since proteinase-K is a non-specific proteolytic enzyme, a specific competitive inhibitor of lysozyme, TAC (chitotriose) was subsequently examined to determine whether it prevented the depression in isometric tension observed in the in vitro preparation (16,17).
In one set of experiments, it was determined whether TAC prevented the reduction in tension observed with Lzm-S. A dose of 10^−3M TAC (based on preliminary experiments) was added to the organ bath before the addition of Lzm-S. Lzm-S was then added to bring the final concentrations to 10^−10M, 10^−9M, 10^−8M, and 10^−7M in sequential steps. In a related set of experiments, the effect of TAC was studied under a similar protocol in which the ventricular trabecular preparation was paced at 1 Hz instead of 0.5 Hz. The objective was to determine whether the higher frequency altered the inhibitory response of TAC. In a third set of experiments, the sequence of adding TAC and Lzm-S was reversed. Lzm-S (10^−7M) was initially added to the preparation, after which TAC at bath concentrations of 10^−6M, 10^−5M, 10^−4M, 10^−3M were sequentially added. The objective was to determine whether TAC could attenuate the effect of Lzm-S on reducing the isometric response after an initial depression in isometric tension had already been attained.
as §1, with “(RV)” for “trabecular”, “also” for “previously”, “described (49,6).” for “described.”, “a” for “a 5 ml”, “bath (5 ml)” for “bath”, “KH (in mM: NaCl, 118; KCl, 4.7; CaCl2 2.5; MgSO4, 1.2; KH2PO4, 1.4; NaHCO3, 25; and dextrose, 11).” for “KH.”
Inhibitory activities of N-acetylglucosamine (NAG), N,N′ diacetylglucosamine (NAG-NAG: N,N′ diacetylchitobiose), and N,N′,N″,N′″ tetraacetylglucosamine (NAG-NAG-NAG-NAG: N,N′,N″,N′″-tetraacetylchitotetraose) were examined (Sigma Corp Canada, Oakville Ontario). These are structurally similar to TAC, but have a different number of NAG units (17). Two somewhat related sugars were also examined to see if there was potential for blocking the activity of lysozyme. These included D-cellotriose and N-aceytllactosamine. D-cellotriose includes three glucose residues linked by beta (1-4) glycosidic linkages, while N acetyllactosamine includes N-acetylglucosamine and galactose residues linked by beta (1-4) glycosidic linkages (12).
After baseline tension was determined, either the sugar or placebo was placed into respective organ baths. The concentration of the sugar used was 10^−3M based on the inventors' previous experiments with TAC 49), while the concentrations of lysozyme were 10^−9, 10^−8, and 10^−7M, respectively. Measurements were obtained at 5 minute intervals. The changes in isometric tension measured from baseline were compared between the treated and placebo baths. […]

CNC(=N)NCCCC(N)C(=O)O [D-NMMA]
Effect on lysozyme's myocardial depressant effect [1]: no inhibition

CNC(=N)NCCC[C@H](N)C(=O)O [L-NMMA, N^G-monomethyl-L-arginine, reference compound]
Effect of the substance by itself on isometric tension [2]: no change in isometric tension
Effect on lysozyme's myocardial depressant effect [1]: markedly attenuated

O=c1onc2cnc3ccccc3n12 [ODQ, 1H-[1,2,4] oxidadiazolo-[4,3-a] quinoxalin-1-one]
Effect on lysozyme's myocardial depressant effect [1]: blocked

CC(=O)N[C@H]1C(O)O[C@H](CO)[C@@H](O[C@@H]2O[C@H](CO)[C@H](O)[C@H](O)[C@H]2O)[C@@H]1O (stereo partly shown) [N-acetyllactosamine]
Isometric tension following pre-treatment with sugar (lysozyme c (Lzm-S); Lzm-S 10^−7M): 48±1 % of baseline
Isometric tension following pre-treatment with sugar (lysozyme c (Lzm-S); Lzm-S 10^−8M): 55±1 % of baseline
Isometric tension following pre-treatment with sugar (lysozyme c (Lzm-S); Lzm-S 10^−9M): 60±0 % of baseline
Inhibition of Lzm-S's depressant effect on isometric tension (lysozyme c (Lzm-S)): neither N-acetylglucosamine (NAG), N-acetyllactosamine nor cellotriose had inhibitory properties

CC(=O)N[C@H]1C(O)O[C@H](CO)[C@@H](O)[C@@H]1O (stereo partly shown) [N-acetylglucosamine]
Isometric tension following pre-treatment with sugar (lysozyme c (Lzm-S); Lzm-S 10^−7M): 44±2 % of baseline
Isometric tension following pre-treatment with sugar (lysozyme c (Lzm-S); Lzm-S 10^−8M): 61±4.5 % of baseline
Isometric tension following pre-treatment with sugar (lysozyme c (Lzm-S); Lzm-S 10^−9M): 85±2 % of baseline
Inhibition of Lzm-S's depressant effect on isometric tension (lysozyme c (Lzm-S)): neither N-acetylglucosamine (NAG), N-acetyllactosamine nor cellotriose had inhibitory properties

CC(=N)NCCC[C@H](N)C(=O)O.Cl.Cl [eNOS]
Concentration of the NOS inhibitor at which lysozyme's depressant effect was prevented [1]: 10^−8 M
Effect on lysozyme's myocardial depressant effect [1]: most potent in the prevention of lysozyme's myocardial depressant effect

OCC1OC(OC2C(CO)OC(OC3C(CO)OC(O)C(O)C3O)C(O)C2O)C(O)C(O)C1O [cellotriose, D-cellotriose]
Isometric tension following pre-treatment with sugar (lysozyme c (Lzm-S); Lzm-S 10^−7M): 58±17 % of baseline
Isometric tension following pre-treatment with sugar (lysozyme c (Lzm-S); Lzm-S 10^−8M): 79±13 % of baseline
Isometric tension following pre-treatment with sugar (lysozyme c (Lzm-S); Lzm-S 10^−9M): 84±9 % of baseline
Inhibition of Lzm-S's depressant effect on isometric tension (lysozyme c (Lzm-S)): neither N-acetylglucosamine (NAG), N-acetyllactosamine nor cellotriose had inhibitory properties

O=c1c2nc(Br)n(C3OC4COP([O-])(=S)OC4C3O)c2nc2[nH]c(-c3ccccc3)cn12.[Na+] (single isomer, unassigned) [Rp-8-Br-cGMP, guanosine 3′,5′-cyclic monophosphorothioate, β-phenyl-1, N^2-etheno-8-bromo-Pp-isomer, sodium salt]
Effect on lysozyme's myocardial depressant effect [1]: blocked

N=C(N)NCCC[C@H](N)C(=O)O [L-arginine]
Effect on the inhibition by L-NMMA [1]: able to competively overcome the effect of L-NMMA

CC(=O)N[C@H]1[C@H](O[C@H]2[C@H](O)[C@@H](NC(C)=O)C(O)O[C@@H]2CO)O[C@H](CO)[C@@H](O[C@@H]2O[C@H](CO)[C@@H](O[C@@H]3O[C@H](CO)[C@@H](O)[C@H](O)[C@H]3NC(C)=O)[C@H](O)[C@H]2NC(C)=O)[C@@H]1O (stereo partly shown) [tetraacetylchitotetraose, N,N′,N″,N′″ tetraacetylglucosamine]
Inhibition of Lzm-S's depressant effect on isometric tension (lysozyme c (Lzm-S)): no inhibitory effect
Inhibition of Lzm-S's depressant effect on isometric tension (lysozyme c (Lzm-S); listed as N,N′,N″,N′″ tetraacetylchitotetraose): no inhibitory effect on lysozyme's depressant activity
